Reference: BigSolDB 2.1

CC(=O)Nc1ccc(OC(=O)c2ccccc2OC(C)=O)cc1 showed a solubility (mole fraction) (in 1,4-dioxane, 293.15 K) of 0.00169, a solubility (mole fraction) (in 1,4-dioxane, 298.15 K) of 0.00204 and a solubility (mole fraction) (in 1,4-dioxane, 303.15 K) of 0.0025. It also gave a solubility (mole fraction) (in 1,4-dioxane, 308.15 K) of 0.00298, a solubility (mole fraction) (in 1,4-dioxane, 313.15 K) of 0.0035 and a solubility (mole fraction) (in 1,4-dioxane, 318.15 K) of 0.00427. It also gave a solubility (mole fraction) (in 2-butanone, 278.15 K) of 0.0025, a solubility (mole fraction) (in 2-butanone, 283.15 K) of 0.00267 and a solubility (mole fraction) (in 2-butanone, 288.15 K) of 0.00287. For the same compound, the solubility (mole fraction) (in 2-butanone, 293.15 K) was 0.00308, the solubility (mole fraction) (in 2-butanone, 298.15 K) was 0.00333 and the solubility (mole fraction) (in 2-butanone, 303.15 K) was 0.00361. The solubility (mole fraction) (in 2-butanone, 308.15 K) was 0.00392, the solubility (mole fraction) (in 2-butanone, 313.15 K) was 0.00429 and the solubility (mole fraction) (in 2-butanone, 318.15 K) was 0.00465. For the same compound, the solubility (mole fraction) (in DMF, 278.15 K) was 0.0172, the solubility (mole fraction) (in DMF, 283.15 K) was 0.0182 and the solubility (mole fraction) (in DMF, 288.15 K) was 0.0192. The solubility (mole fraction) (in DMF, 293.15 K) was 0.0203, the solubility (mole fraction) (in DMF, 298.15 K) was 0.0215 and the solubility (mole fraction) (in DMF, 303.15 K) was 0.0228. For the same compound, the solubility (mole fraction) (in DMF, 308.15 K) was 0.0242, the solubility (mole fraction) (in NMP, 278.15 K) was 0.0209 and the solubility (mole fraction) (in NMP, 283.15 K) was 0.024. For the same compound, the solubility (mole fraction) (in NMP, 288.15 K) was 0.0272, the solubility (mole fraction) (in NMP, 293.15 K) was 0.0304 and the solubility (mole fraction) (in NMP, 298.15 K) was 0.0341. For the same compound, the solubility (mole fraction) (in NMP, 303.15 K) was 0.0378, the solubility (mole fraction) (in NMP, 308.15 K) was 0.0417 and the solubility (mole fraction) (in NMP, 313.15 K) was 0.0464. The solubility (mole fraction) (in NMP, 318.15 K) was 0.0512, the solubility (mole fraction) (in acetonitrile, 278.15 K) was 0.000681 and the solubility (mole fraction) (in acetonitrile, 283.15 K) was 0.000855. For the same compound, the solubility (mole fraction) (in acetonitrile, 288.15 K) was 0.00105, the solubility (mole fraction) (in acetonitrile, 293.15 K) was 0.00134 and the solubility (mole fraction) (in acetonitrile, 298.15 K) was 0.00164. The solubility (mole fraction) (in acetonitrile, 303.15 K) was 0.00199, the solubility (mole fraction) (in acetonitrile, 308.15 K) was 0.00236 and the solubility (mole fraction) (in acetonitrile, 313.15 K) was 0.00283. It also gave a solubility (mole fraction) (in acetonitrile, 318.15 K) of 0.00339, a solubility (mole fraction) (in ethanol, 278.15 K) of 0.000158 and a solubility (mole fraction) (in ethanol, 283.15 K) of 0.00021. The solubility (mole fraction) (in ethanol, 288.15 K) was 0.000265, the solubility (mole fraction) (in ethanol, 293.15 K) was 0.000326 and the solubility (mole fraction) (in ethanol, 298.15 K) was 0.000403. It also gave a solubility (mole fraction) (in ethanol, 303.15 K) of 0.000486, a solubility (mole fraction) (in ethanol, 308.15 K) of 0.000589 and a solubility (mole fraction) (in ethanol, 313.15 K) of 0.000733. For the same compound, the solubility (mole fraction) (in ethanol, 318.15 K) was 0.000907, the solubility (mole fraction) (in ethyl acetate, 278.15 K) was 0.000392 and the solubility (mole fraction) (in ethyl acetate, 283.15 K) was 0.000519. For the same compound, the solubility (mole fraction) (in ethyl acetate, 288.15 K) was 0.000651, the solubility (mole fraction) (in ethyl acetate, 293.15 K) was 0.000789 and the solubility (mole fraction) (in ethyl acetate, 298.15 K) was 0.000983. It also gave a solubility (mole fraction) (in ethyl acetate, 303.15 K) of 0.00119, a solubility (mole fraction) (in ethyl acetate, 308.15 K) of 0.00141 and a solubility (mole fraction) (in ethyl acetate, 313.15 K) of 0.00169. For the same compound, the solubility (mole fraction) (in ethyl acetate, 318.15 K) was 0.00198, the solubility (mole fraction) (in isopropanol, 278.15 K) was 7.6e-05 and the solubility (mole fraction) (in isopropanol, 283.15 K) was 0.000107. For the same compound, the solubility (mole fraction) (in isopropanol, 288.15 K) was 0.000139, the solubility (mole fraction) (in isopropanol, 293.15 K) was 0.000178 and the solubility (mole fraction) (in isopropanol, 298.15 K) was 0.000217. For the same compound, the solubility (mole fraction) (in isopropanol, 303.15 K) was 0.000262, the solubility (mole fraction) (in isopropanol, 308.15 K) was 0.000323 and the solubility (mole fraction) (in isopropanol, 313.15 K) was 0.000394. It also gave a solubility (mole fraction) (in isopropanol, 318.15 K) of 0.000493, a solubility (mole fraction) (in methanol, 278.15 K) of 0.000143 and a solubility (mole fraction) (in methanol, 283.15 K) of 0.000182. The solubility (mole fraction) (in methanol, 288.15 K) was 0.000228, the solubility (mole fraction) (in methanol, 293.15 K) was 0.000278 and the solubility (mole fraction) (in methanol, 298.15 K) was 0.000337. For the same compound, the solubility (mole fraction) (in methanol, 303.15 K) was 0.000403, the solubility (mole fraction) (in methanol, 308.15 K) was 0.000485 and the solubility (mole fraction) (in methanol, 313.15 K) was 0.000601. The solubility (mole fraction) (in methanol, 318.15 K) was 0.000745, the solubility (mole fraction) (in n-butanol, 278.15 K) was 0.000179 and the solubility (mole fraction) (in n-butanol, 283.15 K) was 0.000235. The solubility (mole fraction) (in n-butanol, 288.15 K) was 0.0003, the solubility (mole fraction) (in n-butanol, 293.15 K) was 0.000375 and the solubility (mole fraction) (in n-butanol, 298.15 K) was 0.000459. It also gave a solubility (mole fraction) (in n-butanol, 303.15 K) of 0.000557, a solubility (mole fraction) (in n-butanol, 308.15 K) of 0.000683 and a solubility (mole fraction) (in n-butanol, 313.15 K) of 0.000852. For the same compound, the solubility (mole fraction) (in n-butanol, 318.15 K) was 0.00104, the solubility (mole fraction) (in n-propanol, 278.15 K) was 8.8e-05 and the solubility (mole fraction) (in n-propanol, 283.15 K) was 0.000128. The solubility (mole fraction) (in n-propanol, 288.15 K) was 0.000173, the solubility (mole fraction) (in n-propanol, 293.15 K) was 0.000214 and the solubility (mole fraction) (in n-propanol, 298.15 K) was 0.000264. For the same compound, the solubility (mole fraction) (in n-propanol, 303.15 K) was 0.000327, the solubility (mole fraction) (in n-propanol, 308.15 K) was 0.000402 and the solubility (mole fraction) (in n-propanol, 313.15 K) was 0.000496. It also gave a solubility (mole fraction) (in n-propanol, 318.15 K) of 0.000647, a solubility (mole fraction) (in toluene, 278.15 K) of 1.3e-05 and a solubility (mole fraction) (in toluene, 283.15 K) of 1.8e-05. For the same compound, the solubility (mole fraction) (in toluene, 288.15 K) was 2.5e-05, the solubility (mole fraction) (in toluene, 293.15 K) was 3.4e-05 and the solubility (mole fraction) (in toluene, 298.15 K) was 4.3e-05. For the same compound, the solubility (mole fraction) (in toluene, 303.15 K) was 5.5e-05, the solubility (mole fraction) (in toluene, 308.15 K) was 6.8e-05 and the solubility (mole fraction) (in toluene, 313.15 K) was 8.6e-05. For the same compound, the solubility (mole fraction) (in toluene, 318.15 K) was 0.000108.
